Drawing on patent US8569298B2, “Pyridine compounds” (Astrazeneca AB, priority 2008, dated 2013), this text covers IC50 for 25 compounds.

This assay deals with T1, FAK enzyme (6 His tagged kinase domain, GenBank NP—722560) (Homo sapiens, UniProt Q05397).
T1 construct: 6 His; made in house; host or cells: insect cell culture infected with baculovirus
T1 sequence (Q05397 422-680 limits assumed): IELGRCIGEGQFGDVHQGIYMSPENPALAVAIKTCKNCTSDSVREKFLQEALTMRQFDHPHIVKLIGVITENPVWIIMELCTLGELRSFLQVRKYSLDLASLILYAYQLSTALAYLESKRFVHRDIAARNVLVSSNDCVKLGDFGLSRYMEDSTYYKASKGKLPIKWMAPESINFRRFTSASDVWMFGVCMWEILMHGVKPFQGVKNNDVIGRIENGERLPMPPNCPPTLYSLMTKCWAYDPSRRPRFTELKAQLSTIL
Description: In vitro enzyme assay (a): sandwich ELISA of FAK tyrosine kinase activity on polyGAT peptide, TMB colorimetric endpoint. In kind it is biochemical. The note with it: in vitro Enzyme Assay test (a); ATP at Km; geometric mean of n > 1 measurements, values marked * tested once. On the procedure: (a) In Vitro Enzyme Assay
A sandwich ELISA assay with a 3,3′,5,5′-tetramethyl benzidine (TMB) colorimetric endpoint was used in order to determine the level of effect of selected compounds on inhibition of FAK protein tyrosine kinase enzyme activity. A synthetic tyrosine containing peptide is coated onto a plastic surface, the level of phosphorylation of these tyrosine residues by the kinase enzyme in the presence of inhibitors is measured using an antibody that binds specifically to phosphorylated tyrosine residues. The amount of antibody bound to substrate is proportional to the level of enzyme catalysis.
Assay Protocol to Identify Inhibitors of Focal Adhesion Kinase (FAK).
A PlateMate Plus™ 384 automated liquid handling unit with a 100 μl disposable tip head was used to make all the non compound reagent additions and a Tecan 384PW plate washer with 384 head was used for all wash steps. Initially Matrix 384 well polystyrene plates (Cat #:4311) were coated with 40 μl/well of a 0.0375 mg/ml solution of synthetic poly peptide (polyGAT, Sigma Cat #:P3899) dissolved in phosphate buffered saline (PBS). Plates were stored overnight at 4° C. Immediately before use the coating solution was aspirated out and each well washed with 2×100 μl of PBS+0.05% Tween 20. To remove surplus phosphate, the wells were then washed with 2×100 μl 50 mM HEPES buffer pH 7.4. Plates were blotted dry before the addition of compounds. Compounds were tested over a 12 point dose range, a Labcyte Echo 550 was used to dispense compounds in nl volumes and back fill with DMSO. The final concentration of compound in the assay was dependent on the starting concentration of compound. For a 10 mM stock compound the final assay dose ranged from 100 μM down to […]. Control wells containing 120 nl DMSO (Max) or 120 nl of 10 mM staurosporine (LC Laboratories, Boston, USA Cat #: S-9300) (Min) were included in each plate. 10 ul of 5% dimethyl sulfoxide v/v (DMSO, Fisher Scientific) was added to each well immediately prior to addition of 10 μl of a co-factor solution containing 80 mM MgCl2 (Sigma Cat #: M1028); 80 mM MnCl2 (Sigma Cat #: M1787); ATP at a concentration calculated to enable the initial reaction velocity to progress at half the maximum velocity (Km for ATP) (Sigma Cat #:A7699). A final addition of 20 μl of enzyme solution containing 100 mM HEPES pH7.4; 0.2 mM sodium vanadate (Sigma Cat #:S6508); 0.2 g/l bovine serum albumin (BSA, Sigma Cat #: A7888); 0.2 mM dithioreitol (Sigma Cat #: 5545); 0.1% Triton X100 (Sigma Cat #:X100); FAK enzyme (20 μl/ml) was made to each well to start the assay running FAK enzyme was generated from an insect culture infected with baculo virus containing the DNA sequence encoding the 6 His tagged kinase domain (GenBank NP_722560).
Plates were left at room temperature for 25 minutes before 10 μl of 500 mM ethylenediaminetetraacetic acid (EDTA) was added to stop the assay and the wells were immediately washed 3×100 μl with PBS+0.05% Tween 20. A 4G10 antibody (Millipore Cat #: 16-105; 16-184) with a directly conjugated horse radish peroxidase (HRP) was used to detect the phosphorylation of the substrate by the FAK. 40 μl of PBS+0.05% Tween 20 containing 0.5% BSA and 0.1 μl/ml antibody was added to each well and left for 1 hour at room temperature to allow the antibody to bind. After this period the wells were again washed with 3×100 μl of PBS+0.05% Tween 20. TMB (Sigma Cat #: T2885) was used as a substrate for the HRP. Phosphate-citrate buffer was made up using capsules provided by Sigma (Cat #: P4922) following the manufacturers guidelines. TMB was dissolved at a concentration of 1 mg/ml in DMSO and let down to a final concentration of 0.05 mg/ml with the phosphor-citrate buffer. 40 μl of the TMB solution was added to each assay well and left for 30 minutes for the blue colour to develop. […]
Background: ELISA stands for enzyme-linked immunosorbent assay.
`CNC(=O)c1cccc(F)c1Nc1cc(Nc2cn(C)nc2C)ncc1Cl` [Example 3.39, 2-[[5-Chloro-2-[(1,3-dimethylpyrazol-4-yl)amino]-4-pyridyl]amino]-3-fluoro-N-methyl-benzamide] displayed an IC50 of 55 nM.

`CNC(=O)c1c(F)cccc1Nc1cc(Nc2cn(C)nc2C)ncc1Cl` [Example 3.40, 2-[[5-Chloro-2-[(1,3-dimethylpyrazol-4-yl)amino]-4-pyridyl]amino]-6-fluoro-N-methyl-benzamide] came in with an IC50 of 122 nM.

`CNC(=O)c1cc(F)ccc1Nc1cc(Nc2cn(C)nc2C)ncc1Cl` [Example 3.41, 2-[[5-chloro-2-[(1,3-dimethylpyrazol-4-yl)amino]-4-pyridyl]amino]-5-fluoro-N-methyl-benzamide] gave an IC50 of 87 nM.

Compound `CNC(=O)c1ccc(F)cc1Nc1cc(Nc2cn(C)nc2C)ncc1Cl` [Example 3.42, 2-[[5-chloro-2-[(1,3-dimethylpyrazol-4-yl)amino]-4-pyridyl]amino]-4-fluoro-N-methyl-benzamide] gave a concentration for half-maximal inhibition (IC50) of 5 nM.

Compound `CNC(=O)c1ccccc1Nc1cc(Nc2cnn(CC(=O)N3CCCC3)c2)ncc1F` [Example 4.01, 2-[[5-Fluoro-2-[[1-(2-oxo-2-pyrrolidin-1-yl-ethyl)pyrazol-4-yl]amino]-4-pyridyl]amino]-N-methyl-benzamide] registered an IC50 of 1510 nM.

On to `CNC(=O)c1ccccc1Nc1cc(Nc2cnn(CC(=O)N(C)C3CCN(C)CC3)c2)ncc1F` [Example 4.02, 2-[[5-fluoro-2-[[1-[2-[methyl-(1-methyl-4-piperidyl)amino]-2-oxo-ethyl]pyrazol-4-yl]amino]-4-pyridyl]amino]-N-methyl-benzamide], for which the concentration for half-maximal inhibition (IC50) was found to be 1320 nM.

In turn, `CNC(=O)c1ccccc1Nc1cc(Nc2cnn(CC(=O)N(C)CCOC)c2)ncc1F` [Example 4.03] came in with a concentration for half-maximal inhibition (IC50) of 2120 nM.

Turning to `CNC(=O)c1ccccc1Nc1cc(Nc2cnn(CC(=O)N3CCCN(C)CC3)c2)ncc1F` [Example 4.04, 2-[[5-fluoro-2-[[1-[2-(4-methyl-1,4-diazepan-1-yl)-2-oxo-ethyl]pyrazol-4-yl]amino]-4-pyridyl]amino]-N-methyl-benzamide], the IC50 is 967 nM.

`CNC(=O)c1ccccc1Nc1cc(Nc2cnn(CC(=O)N3CCOCC3)c2)ncc1F` [Example 4.05, 2-[[5-fluoro-2-[[1-(2-morpholino-2-oxo-ethyl)pyrazol-4-yl]amino]-4-pyridyl]amino]-N-methyl-benzamide] returned an IC50 of 1300 nM.

`CNC(=O)c1ccccc1Nc1cc(Nc2cnn(CC(=O)N3CCC(N(C)C)CC3)c2)ncc1F` [Example 4.06, 2-[[2-[[1-[2-(4-dimethylamino-1-piperidyl)-2-oxo-ethyl]pyrazol-4-yl]amino]-5-fluoro-4-pyridyl]amino]-N-methyl-benzamide] registered a concentration for half-maximal inhibition (IC50) of 1050 nM.

For the compound `CNC(=O)c1ccccc1Nc1cc(Nc2cnn(CC(=O)N3CCN(C)CC3)c2)ncc1F` [Example 4.07, 2-[[5-fluoro-2-[[1-[2-(4-methylpiperazin-1-yl)-2-oxo-ethyl]pyrazol-4-yl]amino]-4-pyridyl]amino]-N-methyl-benzamide], the IC50 was determined as 577 nM.

`CNC(=O)c1ccccc1Nc1cc(Nc2cnn(C)c2)ncc1F` [Example 4.08, 2-[[5-Fluoro-2-[(1-methylpyrazol-4-yl)amino]-4-pyridyl]amino]-N-methyl-benzamide] returned an IC50 of 2190 nM.

`CNC(=O)c1ccccc1Nc1cc(Nc2cnn(C3CCOCC3)c2)ncc1F` [Example 4.09, 2-[[5-fluoro-2-[(1-tetrahydropyran-4-ylpyrazol-4-yl)amino]-4-pyridyl]amino]-N-methyl-benzamide] gave a half-maximal inhibitory concentration (IC50) of 3380 nM.

On to `CNC(=O)c1ccccc1Nc1cc(Nc2cn(C)nc2C)ncc1F` [Example 4.10, 2-[[2-[(1,3-dimethylpyrazol-4-yl)amino]-5-fluoro-4-pyridyl]amino]-N-methyl-benzamide], for which the half-inhibitory concentration (IC50) came to 1770 nM.

`CNC(=O)c1ccccc1Nc1cc(Nc2cnn(C3CCN(C)CC3)c2)ncc1F` [Example 4.11, 2-[[5-fluoro-2-[[1-(1-methyl-4-piperidyl)pyrazol-4-yl]amino]-4-pyridyl]amino]-N-methyl-benzamide] gave a concentration for half-maximal inhibition (IC50) of 2080 nM.

Compound `Cc1nn(C)cc1Nc1cc(Nc2cccc3c2C(=O)N(C)CC3)c(F)cn1` [Example 4.12, 8-[[2-[(1,3-Dimethylpyrazol-4-yl)amino]-5-fluoro-4-pyridyl]amino]-2-methyl-3,4-dihydroisoquinolin-1-one] gave a half-inhibitory concentration (IC50) of 121 nM.

Take `CN1CCc2cccc(Nc3cc(Nc4cnn([C@@H]5CCC(=O)NC5)c4)ncc3F)c2C1=O` [Example 4.13, 8-[[5-fluoro-2-[[1-[(3R)-6-oxopiperidin-3-yl]pyrazol-4-yl]amino]pyridin-4-yl]amino]-2-methyl-3,4-dihydroisoquinolin-1-one]: the IC50 is 1030 nM.

Compound `CN1CCc2cccc(Nc3cc(Nc4cnn(C)c4)ncc3F)c2C1=O` [Example 4.14, 8-[[5-fluoro-2-[(1-methylpyrazol-4-yl)amino]-4-pyridyl]amino]-2-methyl-3,4-dihydroisoquinolin-1-one] yielded an IC50 of 408 nM.

`CN1CCc2cccc(Nc3cc(Nc4cnn(C5CCOCC5)c4)ncc3F)c2C1=O` [Example 4.15, 8-[[5-fluoro-2-[(1-tetrahydropyran-4-ylpyrazol-4-yl)amino]-4-pyridyl]amino]-2-methyl-3,4-dihydroisoquinolin-1-one]: the IC50 was found to be 454 nM.

Turning to `CN1CCC(n2cc(Nc3cc(Nc4cccc5c4C(=O)N(C)CC5)c(F)cn3)cn2)CC1` [Example 4.16, 8[[5-fluoro-2-[[1-(1-methyl-4-piperidyl)pyrazol-4-yl]amino]-4-pyridyl]amino]-2-methyl-3,4-dihydroisoquinolin-1-one], the half-maximal inhibitory concentration (IC50) amounted to 465 nM.

The compound `CN1CCc2cccc(Nc3cc(Nc4cnn(C5CCNCC5)c4)ncc3F)c2C1=O` [Example 4.17, 8-[[5-Fluoro-2-[[1-(4-piperidyl)pyrazol-4-yl]amino]-4-pyridyl]amino]-2-methyl-3,4-dihydroisoquinolin-1-one] yielded an IC50 of 189 nM.

In turn, `CN1CCc2cccc(Nc3cc(Nc4cnn(C5CCCNC5)c4)ncc3F)c2C1=O` (stereo not shown) [Example 4.18, 8-[[5-fluoro-2-[[1-(3-piperidyl)pyrazol-4-yl]amino]-4-pyridyl]amino]-2-methyl-3,4-dihydroisoquinolin-1-one] registered an IC50 of 676 nM.

Compound `CN1CCc2cccc(Nc3cc(Nc4ccn(C5CCNCC5)n4)ncc3F)c2C1=O` [Example 4.19, 8-[[5-fluoro-2-[[1-(4-piperidyl)pyrazol-3-yl]amino]-4-pyridyl]amino]-2-methyl-3,4-dihydroisoquinolin-1-one] gave a concentration for half-maximal inhibition (IC50) of 83 nM.

`CN1CCc2cccc(Nc3cc(Nc4cnn(CC(=O)N5CCCC5)c4)ncc3F)c2C1=O` [Example 4.20, 8-[[5-Fluoro-2-[[1-(2-oxo-2-pyrrolidin-1-yl-ethyl)pyrazol-4-yl]amino]-4-pyridyl]amino]-2-methyl-3,4-dihydroisoquinolin-1-one] yielded an IC50 of 304 nM.

The compound `CN(C)CCCNC(=O)Cn1cc(Nc2cc(Nc3cccc4c3C(=O)N(C)CC4)c(F)cn2)cn1` [Example 4.21, N-(3-dimethylaminopropyl)-2-[4-[[5-fluoro-4-[(2-methyl-1-oxo-3,4-dihydroisoquinolin-8-yl)amino]-2-pyridyl]amino]pyrazol-1-yl]acetamide] had an IC50 of 188 nM.

For orientation: IC50 means the point on the concentration scale where inhibition reaches its midpoint. A low value points to inhibition by little substance.
